Results reported in patent publication US20240400577A1, “MODULATORS OF PROTEIN KINASES” (VIBLIOME THERAPEUTICS, LLC, priority 2021, published 2024).

How the values were obtained:
Assay in all cases: Kinase panel enzymatic inhibition assay (Nanosyn)
Type in all cases: biochemical
Settings in all cases: compound 5 μM; ATP at Km; 30-minute pre-incubation
[1] = target: T1, YES (Homo sapiens, UniProt P07947)
T1 construct: Nanosyn (contract laboratory that ran the panel)
In short: (§1)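 Inhibition is expressed as percent at 5 μM or as IC50, with ATP set at the Km of each kinase and a 30-minute compound pre-incubation. Detection used an accepted enzymatic format such as Caliper mobility shift.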

[2] = target: T2, DDR1 (Homo sapiens, UniProt Q08345)
T2 construct: purchased Nanosyn (contract screening)
In short: as §1

[3] = target: T3, CSK (Homo sapiens, UniProt P41240)
T3 construct: purchased Nanosyn (contract screening)
T3 sequence (P41240 whole entry): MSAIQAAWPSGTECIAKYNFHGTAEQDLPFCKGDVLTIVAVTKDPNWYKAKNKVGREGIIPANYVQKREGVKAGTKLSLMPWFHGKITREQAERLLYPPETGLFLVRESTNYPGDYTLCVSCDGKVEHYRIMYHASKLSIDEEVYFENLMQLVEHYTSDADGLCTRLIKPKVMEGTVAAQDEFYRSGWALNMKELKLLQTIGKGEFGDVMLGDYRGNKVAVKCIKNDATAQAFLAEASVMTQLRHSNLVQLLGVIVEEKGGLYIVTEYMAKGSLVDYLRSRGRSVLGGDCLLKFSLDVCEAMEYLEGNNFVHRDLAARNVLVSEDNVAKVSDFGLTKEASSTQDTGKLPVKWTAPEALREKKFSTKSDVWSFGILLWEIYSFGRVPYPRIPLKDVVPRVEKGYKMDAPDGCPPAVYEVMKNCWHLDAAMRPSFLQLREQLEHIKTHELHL
In short: as §1

[4] = target: T4, HCK (Homo sapiens, UniProt P08631)
T4 construct: purchased Nanosyn (contract screening)
T4 sequence (P08631 whole entry): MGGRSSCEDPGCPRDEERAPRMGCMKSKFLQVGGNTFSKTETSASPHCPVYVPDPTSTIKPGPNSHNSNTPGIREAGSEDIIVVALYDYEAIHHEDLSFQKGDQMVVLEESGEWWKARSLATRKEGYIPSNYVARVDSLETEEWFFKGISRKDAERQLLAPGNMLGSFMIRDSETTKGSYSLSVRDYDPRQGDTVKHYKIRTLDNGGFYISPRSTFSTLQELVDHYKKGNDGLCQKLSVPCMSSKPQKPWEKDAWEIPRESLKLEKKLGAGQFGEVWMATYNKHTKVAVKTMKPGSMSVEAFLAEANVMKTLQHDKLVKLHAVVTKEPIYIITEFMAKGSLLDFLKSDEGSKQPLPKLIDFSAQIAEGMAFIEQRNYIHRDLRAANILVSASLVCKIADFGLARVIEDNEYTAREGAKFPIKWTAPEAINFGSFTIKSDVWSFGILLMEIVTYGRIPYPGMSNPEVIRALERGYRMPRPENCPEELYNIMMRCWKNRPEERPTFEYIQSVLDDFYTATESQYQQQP
In short: as §1

[5] = target: T5, PKCb1 (Homo sapiens, UniProt P05771)
T5 construct: Nanosyn (contract laboratory that ran the panel)
In short: as §1

[6] = target: T6, LCK (Homo sapiens, UniProt P06239)
T6 construct: purchased Nanosyn (contract screening)
In short: as §1

[7] = target: T7, SRC (Homo sapiens, UniProt P12931)
T7 construct: Nanosyn (contract laboratory that ran the panel)
T7 sequence (P12931 whole entry): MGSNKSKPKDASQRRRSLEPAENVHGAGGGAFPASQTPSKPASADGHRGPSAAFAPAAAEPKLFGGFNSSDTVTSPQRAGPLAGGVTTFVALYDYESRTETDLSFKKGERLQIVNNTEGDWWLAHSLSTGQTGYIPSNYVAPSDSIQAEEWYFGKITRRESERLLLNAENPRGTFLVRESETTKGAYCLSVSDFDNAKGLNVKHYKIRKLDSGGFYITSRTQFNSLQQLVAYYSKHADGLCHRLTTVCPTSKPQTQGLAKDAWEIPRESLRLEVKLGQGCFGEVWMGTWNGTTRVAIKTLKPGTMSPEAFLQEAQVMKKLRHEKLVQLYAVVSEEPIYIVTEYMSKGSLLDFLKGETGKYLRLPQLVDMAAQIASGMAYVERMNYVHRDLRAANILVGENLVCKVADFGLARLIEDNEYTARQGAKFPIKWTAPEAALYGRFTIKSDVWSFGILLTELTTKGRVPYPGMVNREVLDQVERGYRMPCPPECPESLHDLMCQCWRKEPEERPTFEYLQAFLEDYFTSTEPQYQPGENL
In short: as §1

[8] = target: T8, p38a (Homo sapiens, UniProt Q16539)
T8 construct: Nanosyn (contract laboratory that ran the panel)
In short: as §1

[9] = target: T9, HGK (Homo sapiens, UniProt O95819)
T9 construct: purchased Nanosyn (contract screening)
In short: as §1

[10] = target: T10, PDGFRa (Homo sapiens, UniProt P16234)
T10 construct: Nanosyn (contract laboratory that ran the panel)
In short: as §1

[11] = target: T11, KIT (Homo sapiens, UniProt P10721)
T11 construct: purchased Nanosyn (contract screening)
T11 sequence (P10721 26-976): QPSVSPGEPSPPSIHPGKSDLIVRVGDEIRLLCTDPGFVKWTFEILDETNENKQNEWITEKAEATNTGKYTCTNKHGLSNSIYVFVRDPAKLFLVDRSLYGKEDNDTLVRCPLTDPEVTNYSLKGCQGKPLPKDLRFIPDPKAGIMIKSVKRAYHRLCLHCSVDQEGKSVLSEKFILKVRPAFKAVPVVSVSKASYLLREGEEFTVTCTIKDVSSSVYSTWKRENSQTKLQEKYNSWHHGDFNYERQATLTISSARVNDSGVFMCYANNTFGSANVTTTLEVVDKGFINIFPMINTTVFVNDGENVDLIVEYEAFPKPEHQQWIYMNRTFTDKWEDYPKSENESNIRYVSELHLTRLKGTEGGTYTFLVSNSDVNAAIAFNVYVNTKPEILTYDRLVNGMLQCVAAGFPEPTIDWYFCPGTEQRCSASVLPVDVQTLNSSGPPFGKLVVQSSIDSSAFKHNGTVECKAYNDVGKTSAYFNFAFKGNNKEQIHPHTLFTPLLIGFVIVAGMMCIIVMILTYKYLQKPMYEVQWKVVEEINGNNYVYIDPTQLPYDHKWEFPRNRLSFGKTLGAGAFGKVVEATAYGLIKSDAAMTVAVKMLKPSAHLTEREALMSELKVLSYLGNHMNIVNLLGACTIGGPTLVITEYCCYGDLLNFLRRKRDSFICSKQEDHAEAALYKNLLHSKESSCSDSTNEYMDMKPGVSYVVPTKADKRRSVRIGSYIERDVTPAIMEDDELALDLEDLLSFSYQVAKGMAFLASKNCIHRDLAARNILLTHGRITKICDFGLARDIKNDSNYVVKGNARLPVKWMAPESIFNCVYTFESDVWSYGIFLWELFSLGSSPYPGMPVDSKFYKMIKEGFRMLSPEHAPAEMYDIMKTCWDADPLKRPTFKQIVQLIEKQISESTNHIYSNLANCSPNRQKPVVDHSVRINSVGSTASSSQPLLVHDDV
In short: as §1

[12] = target: T12, TAOK2 (Homo sapiens, UniProt Q9UL54)
T12 construct: Nanosyn (contract laboratory that ran the panel)
T12 sequence (Q9UL54 1-1235): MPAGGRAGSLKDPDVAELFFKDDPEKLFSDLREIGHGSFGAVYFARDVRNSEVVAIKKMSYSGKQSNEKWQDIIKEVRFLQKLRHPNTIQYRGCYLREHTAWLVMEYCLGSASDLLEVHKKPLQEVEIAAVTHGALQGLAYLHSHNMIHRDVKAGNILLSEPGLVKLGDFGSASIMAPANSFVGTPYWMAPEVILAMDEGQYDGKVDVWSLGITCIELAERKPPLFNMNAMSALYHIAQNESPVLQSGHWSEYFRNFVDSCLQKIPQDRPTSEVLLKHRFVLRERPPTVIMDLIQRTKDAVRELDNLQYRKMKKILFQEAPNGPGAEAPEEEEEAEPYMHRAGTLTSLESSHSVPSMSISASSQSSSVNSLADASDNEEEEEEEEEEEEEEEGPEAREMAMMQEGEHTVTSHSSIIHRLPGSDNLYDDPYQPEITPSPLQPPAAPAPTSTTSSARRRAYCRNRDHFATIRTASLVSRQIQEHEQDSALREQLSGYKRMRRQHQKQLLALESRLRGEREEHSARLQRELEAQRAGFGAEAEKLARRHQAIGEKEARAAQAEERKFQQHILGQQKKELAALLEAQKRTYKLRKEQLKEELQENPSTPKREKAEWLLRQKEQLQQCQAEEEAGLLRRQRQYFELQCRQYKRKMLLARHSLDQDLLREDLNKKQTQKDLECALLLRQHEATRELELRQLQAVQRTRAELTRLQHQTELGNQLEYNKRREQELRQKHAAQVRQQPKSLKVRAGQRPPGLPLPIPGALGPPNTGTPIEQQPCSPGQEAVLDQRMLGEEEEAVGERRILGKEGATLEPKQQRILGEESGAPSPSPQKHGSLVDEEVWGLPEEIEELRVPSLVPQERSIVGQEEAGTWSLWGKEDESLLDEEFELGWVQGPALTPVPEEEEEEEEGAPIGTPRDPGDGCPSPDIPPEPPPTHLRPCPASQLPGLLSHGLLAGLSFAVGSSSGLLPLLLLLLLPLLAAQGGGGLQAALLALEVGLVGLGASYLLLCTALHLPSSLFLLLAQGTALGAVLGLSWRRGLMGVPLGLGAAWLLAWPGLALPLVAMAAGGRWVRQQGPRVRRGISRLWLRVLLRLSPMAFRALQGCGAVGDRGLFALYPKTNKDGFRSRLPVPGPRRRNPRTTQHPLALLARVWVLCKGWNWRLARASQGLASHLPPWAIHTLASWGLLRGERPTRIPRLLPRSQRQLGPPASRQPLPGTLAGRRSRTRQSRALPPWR
In short: as §1

[13] = target: T13, BRK (Homo sapiens, UniProt Q13882)
T13 construct: purchased Nanosyn (contract screening)
In short: as §1

[14] = target: T14, CSF1R (Homo sapiens, UniProt P07333)
T14 construct: purchased Nanosyn (contract screening)
T14 sequence (P07333 20-972): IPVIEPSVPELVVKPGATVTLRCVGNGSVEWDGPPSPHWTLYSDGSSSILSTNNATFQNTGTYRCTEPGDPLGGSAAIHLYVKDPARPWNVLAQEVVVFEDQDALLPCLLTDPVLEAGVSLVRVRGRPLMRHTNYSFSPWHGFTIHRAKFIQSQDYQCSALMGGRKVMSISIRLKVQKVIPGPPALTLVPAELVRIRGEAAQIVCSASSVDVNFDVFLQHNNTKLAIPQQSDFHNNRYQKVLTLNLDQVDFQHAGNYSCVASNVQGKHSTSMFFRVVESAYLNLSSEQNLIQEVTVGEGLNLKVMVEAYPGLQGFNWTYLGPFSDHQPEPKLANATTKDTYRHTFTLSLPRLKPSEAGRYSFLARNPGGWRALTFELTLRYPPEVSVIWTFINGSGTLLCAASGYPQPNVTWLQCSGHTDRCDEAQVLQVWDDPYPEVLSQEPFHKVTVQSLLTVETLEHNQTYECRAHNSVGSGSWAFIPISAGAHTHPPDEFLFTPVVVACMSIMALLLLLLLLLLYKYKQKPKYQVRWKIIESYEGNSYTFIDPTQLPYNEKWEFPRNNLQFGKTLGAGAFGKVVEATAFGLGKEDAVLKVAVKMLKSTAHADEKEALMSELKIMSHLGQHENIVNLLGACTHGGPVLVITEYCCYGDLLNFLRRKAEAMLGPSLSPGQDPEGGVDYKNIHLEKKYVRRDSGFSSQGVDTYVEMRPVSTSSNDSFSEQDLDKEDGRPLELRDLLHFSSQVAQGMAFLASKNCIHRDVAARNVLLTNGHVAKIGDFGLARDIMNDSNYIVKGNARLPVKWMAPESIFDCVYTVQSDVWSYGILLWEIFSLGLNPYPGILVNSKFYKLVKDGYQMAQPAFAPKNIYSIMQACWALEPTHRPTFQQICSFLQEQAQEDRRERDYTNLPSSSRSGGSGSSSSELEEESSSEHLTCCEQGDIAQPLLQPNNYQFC
In short: as §1

[15] = target: T15, CLK4 (Homo sapiens, UniProt Q9HAZ1)
T15 construct: purchased Nanosyn (contract screening)
T15 sequence (Q9HAZ1 whole entry): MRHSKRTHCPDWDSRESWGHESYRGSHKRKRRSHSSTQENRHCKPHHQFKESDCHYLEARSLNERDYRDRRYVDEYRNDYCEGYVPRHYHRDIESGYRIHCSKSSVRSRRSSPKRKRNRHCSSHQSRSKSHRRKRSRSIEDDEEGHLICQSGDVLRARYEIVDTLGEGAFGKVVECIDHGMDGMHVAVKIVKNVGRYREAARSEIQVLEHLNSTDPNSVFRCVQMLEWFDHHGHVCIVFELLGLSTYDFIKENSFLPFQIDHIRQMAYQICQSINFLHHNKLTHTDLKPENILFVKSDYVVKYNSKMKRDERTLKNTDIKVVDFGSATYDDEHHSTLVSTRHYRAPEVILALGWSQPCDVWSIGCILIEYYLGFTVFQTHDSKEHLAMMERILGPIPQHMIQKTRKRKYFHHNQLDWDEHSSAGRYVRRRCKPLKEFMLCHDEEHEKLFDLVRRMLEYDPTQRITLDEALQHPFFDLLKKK
In short: as §1

[16] = target: T16, Abl1 (Homo sapiens, UniProt P00519)
T16 construct: purchased Nanosyn (contract screening)
T16 sequence (P00519 whole entry): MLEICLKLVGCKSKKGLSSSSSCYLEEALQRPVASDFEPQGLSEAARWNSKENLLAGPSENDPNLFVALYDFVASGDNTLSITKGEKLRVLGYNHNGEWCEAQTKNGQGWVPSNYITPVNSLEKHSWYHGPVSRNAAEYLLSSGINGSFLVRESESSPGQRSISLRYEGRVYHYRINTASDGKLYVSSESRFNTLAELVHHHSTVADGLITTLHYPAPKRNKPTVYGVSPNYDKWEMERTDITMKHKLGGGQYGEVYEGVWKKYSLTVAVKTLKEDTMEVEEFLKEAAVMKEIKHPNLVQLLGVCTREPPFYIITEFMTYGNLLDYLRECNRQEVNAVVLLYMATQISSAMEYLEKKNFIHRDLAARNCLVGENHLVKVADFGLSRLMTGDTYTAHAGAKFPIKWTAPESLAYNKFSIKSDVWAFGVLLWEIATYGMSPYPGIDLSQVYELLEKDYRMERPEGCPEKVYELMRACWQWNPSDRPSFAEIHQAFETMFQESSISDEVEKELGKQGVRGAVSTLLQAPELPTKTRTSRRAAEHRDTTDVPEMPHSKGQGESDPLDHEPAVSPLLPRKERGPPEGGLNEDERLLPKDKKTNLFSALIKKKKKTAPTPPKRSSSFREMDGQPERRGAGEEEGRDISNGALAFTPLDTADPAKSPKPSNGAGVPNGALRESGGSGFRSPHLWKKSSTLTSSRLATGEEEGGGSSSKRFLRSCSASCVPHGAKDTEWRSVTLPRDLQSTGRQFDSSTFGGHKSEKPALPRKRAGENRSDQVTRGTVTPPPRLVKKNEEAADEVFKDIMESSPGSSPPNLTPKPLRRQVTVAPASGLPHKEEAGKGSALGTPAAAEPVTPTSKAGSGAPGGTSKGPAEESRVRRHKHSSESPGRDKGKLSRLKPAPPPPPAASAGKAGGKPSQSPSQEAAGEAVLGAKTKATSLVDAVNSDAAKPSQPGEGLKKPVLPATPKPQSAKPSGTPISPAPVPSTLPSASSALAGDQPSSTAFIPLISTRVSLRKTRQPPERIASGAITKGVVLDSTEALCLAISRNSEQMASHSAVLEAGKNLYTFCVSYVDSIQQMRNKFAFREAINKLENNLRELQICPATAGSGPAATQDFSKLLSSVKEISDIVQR
In short: as §1

Structure (SMILES)	inhibition at 5 µM [1] [%]	inhibition at 5 µM [2] [%]	inhibition at 5 µM [3] [%]	inhibition at 5 µM [4] [%]	inhibition at 5 µM [5] [%]	inhibition at 5 µM [6] [%]	inhibition at 5 µM [7] [%]	inhibition at 5 µM [8] [%]	inhibition at 5 µM [9] [%]	inhibition at 5 µM [10] [%]	inhibition at 5 µM [11] [%]	inhibition at 5 µM [12] [%]	inhibition at 5 µM [13] [%]	inhibition at 5 µM [14] [%]	inhibition at 5 µM [15] [%]	inhibition at 5 µM [16] [%]
Cc1ccc(NC(=O)c2cc([S+](C)[O-])n(-c3ccc(F)cc3)n2)cc1Nc1ccc2ncn(C)c(=O)c2c1 (stereo not shown) [Ex5, 1-(4-fluorophenyl)-N-(4-methyl-3-((3-methyl-4-oxo-3,4-dihydroquinazolin-6-yl)amino)phenyl)-5-(methylsulfinyl)-1H-pyrazole-3-carboxamide]	< 79	90 to 94	< 79	< 79	< 79	90 to 94	< 79	≥ 95	< 79	< 79	80 to 89	< 79	< 79	< 79	< 79	< 79
CCOC(=O)Nc1cn2nc(Nc3cc(NC(=O)c4cc(S(C)(=O)=O)n(-c5ccc(F)cc5)n4)ccc3C)ccc2n1 [Ex15, ethyl (6-((5-(1-(4-fluorophenyl)-5-(methylsulfonyl)-1H-pyrazole-3-carboxamido)-2-methylphenyl)amino)imidazo[1,2-b]pyridazin-2-yl)carbamate]	≥ 95	≥ 95	80 to 89	80 to 89	< 79	≥ 95	90 to 94	≥ 95	< 79	≥ 95	≥ 95	< 79	< 79	≥ 95	< 79	≥ 95
CSc1cc(C(=O)Nc2cc(Oc3ccnc(C(=O)NC4CNC4)c3)ccc2F)nn1-c1ccc(F)cc1 [Ex8, N-(azetidin-3-yl)-4-(4-fluoro-3-(1-(4-fluorophenyl)-5-(methylthio)-1H-pyrazole-3-carboxamido)phenoxy)picolinamide]	< 79	< 79	< 79	< 79	80 to 89	< 79	< 79	< 79	80 to 89	< 79	< 79	< 79	< 79	< 79	80 to 89	< 79
Cc1ccc(NC(=O)c2cc([S+](C)[O-])n(-c3ccc(F)cc3)n2)cc1C#Cc1cnc2cccnn12 (stereo not shown) [Ex6, 1-(4-fluorophenyl)-N-(3-(imidazo[1,2-b]pyridazin-3-ylethynyl)-4-methylphenyl)-5-(methylsulfinyl)-1H-pyrazole-3-carboxamide]	80 to 89	≥ 95	80 to 89	≥ 95	< 79	≥ 95	90 to 94	90 to 94	< 79	≥ 95	90 to 94	< 79	80 to 89	90 to 94	< 79	< 79
CCOC(=O)Nc1cn2nc(Nc3cc(NC(=O)c4cc([S+](C)[O-])n(-c5ccc(F)cc5)n4)ccc3C)ccc2n1 (stereo not shown) [Ex18, ethyl (6-((5-(1-(4-fluorophenyl)-5-(methylsulfinyl)-1H-pyrazole-3-carboxamido)-2-methylphenyl)amino)imidazo[1,2-b]pyridazin-2-yl)carbamate]	90 to 94	≥ 95	< 79	≥ 95	< 79	≥ 95	80 to 89	≥ 95	< 79	90 to 94	80 to 89	< 79	< 79	80 to 89	< 79	≥ 95
Cc1ccc(NC(=O)c2cc([S+](C)[O-])n(-c3ccc(F)cc3)n2)cc1-c1cc(OCCO)nc(N2CCOCC2)c1 (stereo not shown) [Ex10, 1-(4-fluorophenyl)-N-(3-(2-(2-hydroxyethoxy)-6-morpholinopyridin-4-yl)-4-methylphenyl)-5-(methylsulfinyl)-1H-pyrazole-3-carboxamide]	< 79	≥ 95	< 79	< 79	< 79	< 79	< 79	< 79	< 79	< 79	< 79	90 to 94	< 79	< 79	< 79	< 79
Cc1ccc(NC(=O)c2cc(S(C)(=O)=O)n(-c3ccc(F)cc3)n2)cc1Nc1nccc(-c2cccnc2N)n1 [Ex13, N-(3-((4-(2-aminopyridin-3-yl)pyrimidin-2-yl)amino)-4-methylphenyl)-1-(4-fluorophenyl)-5-(methylsulfonyl)-1H-pyrazole-3-carboxamide]	< 79	≥ 95	< 79	< 79	< 79	90 to 94	< 79	< 79	< 79	≥ 95	≥ 95	< 79	< 79	≥ 95	< 79	≥ 95
